Results as given in patent US11208412B2 (DAEGU-GYEONGBUK MEDICAL INNOVATION FOUNDATION, priority 2017, dated 2021).
Read-outs that look alike come from different tables or passages of the source.

Columns and labels:
Assay in all cases: Kinase selectivity, DiscoverX scanMAX Kinase assay panel (% control)
Type in all cases: binding
[1] = target: T1, kinases of the scanMAX Kinase assay panel (Homo sapiens, UniProt Q96Q40); conditions: PFTAIRE2; 1 uM
T1 construct: purchased DiscoverX Co. (contract measurement) scanMAX Kinase assay panel
T1 sequence (Q96Q40 whole entry): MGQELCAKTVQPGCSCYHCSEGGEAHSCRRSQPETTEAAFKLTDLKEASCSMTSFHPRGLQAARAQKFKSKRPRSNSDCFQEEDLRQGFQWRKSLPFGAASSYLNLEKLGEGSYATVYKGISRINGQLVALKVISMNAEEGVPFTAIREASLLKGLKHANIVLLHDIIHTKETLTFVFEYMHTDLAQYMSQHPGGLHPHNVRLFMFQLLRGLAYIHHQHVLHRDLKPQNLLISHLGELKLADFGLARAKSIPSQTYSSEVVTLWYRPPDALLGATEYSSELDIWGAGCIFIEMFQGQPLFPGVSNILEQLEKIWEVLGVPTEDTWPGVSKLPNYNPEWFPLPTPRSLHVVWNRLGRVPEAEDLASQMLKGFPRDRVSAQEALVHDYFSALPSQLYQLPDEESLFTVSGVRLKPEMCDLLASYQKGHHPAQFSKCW
Procedure, shortened: (§1)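 Percent of control computed as (compound − positive control)/(negative control − positive control) × 100, DMSO defining 100% and positive control 0%. Each panel kinase exposed to 1 uM compound; values under 35% taken to mean the compound acts on that kinase.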

[2] = target: T2, kinases of the scanMAX Kinase assay panel (Homo sapiens, UniProt Q9H3Y6); conditions: kinase SRMS; 1 uM in DMSO
T2 construct: purchased DiscoverX Co. (contract measurement) scanMAX Kinase assay panel
Procedure, shortened: as §1

[3] = target: T3, kinases of the scanMAX Kinase assay panel (Homo sapiens, UniProt Q16584); conditions: MLK3; 1 uM
T3 construct: purchased DiscoverX Co. (contract measurement) scanMAX Kinase assay panel
Procedure, shortened: as §1

[4] = target: T4, kinases of the scanMAX Kinase assay panel (Homo sapiens, UniProt P35590); conditions: kinase TIE1; 1 uM in DMSO
T4 construct: purchased DiscoverX Co. (contract measurement) scanMAX Kinase assay panel
T4 sequence (P35590 22-1138): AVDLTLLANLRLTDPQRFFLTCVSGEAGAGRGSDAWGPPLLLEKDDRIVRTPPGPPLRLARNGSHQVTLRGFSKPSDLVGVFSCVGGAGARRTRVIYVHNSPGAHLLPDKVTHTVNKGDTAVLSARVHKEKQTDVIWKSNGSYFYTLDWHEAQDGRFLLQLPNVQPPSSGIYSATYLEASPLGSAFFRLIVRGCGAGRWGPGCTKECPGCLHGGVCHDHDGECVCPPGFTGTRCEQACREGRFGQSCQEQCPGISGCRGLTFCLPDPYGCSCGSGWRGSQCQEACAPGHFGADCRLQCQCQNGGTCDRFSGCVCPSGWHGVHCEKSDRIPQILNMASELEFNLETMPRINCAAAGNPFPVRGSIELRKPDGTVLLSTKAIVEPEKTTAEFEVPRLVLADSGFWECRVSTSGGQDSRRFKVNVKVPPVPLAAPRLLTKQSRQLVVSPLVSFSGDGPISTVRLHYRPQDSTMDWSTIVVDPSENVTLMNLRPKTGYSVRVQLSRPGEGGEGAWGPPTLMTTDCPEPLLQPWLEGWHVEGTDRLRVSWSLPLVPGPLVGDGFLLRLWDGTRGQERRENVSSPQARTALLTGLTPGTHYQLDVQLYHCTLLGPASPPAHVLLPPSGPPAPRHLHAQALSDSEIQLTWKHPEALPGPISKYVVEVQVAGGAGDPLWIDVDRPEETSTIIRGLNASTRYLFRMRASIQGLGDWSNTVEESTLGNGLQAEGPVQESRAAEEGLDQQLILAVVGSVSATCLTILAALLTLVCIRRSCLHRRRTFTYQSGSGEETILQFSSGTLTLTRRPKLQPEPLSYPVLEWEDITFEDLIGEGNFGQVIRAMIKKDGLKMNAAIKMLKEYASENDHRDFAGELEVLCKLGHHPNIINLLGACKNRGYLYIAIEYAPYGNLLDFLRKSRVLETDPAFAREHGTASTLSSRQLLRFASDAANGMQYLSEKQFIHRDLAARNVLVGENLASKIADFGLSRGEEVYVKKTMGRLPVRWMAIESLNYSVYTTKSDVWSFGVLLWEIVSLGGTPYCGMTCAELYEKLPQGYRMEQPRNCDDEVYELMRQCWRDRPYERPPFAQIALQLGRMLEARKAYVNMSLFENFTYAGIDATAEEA
Procedure, shortened: as §1

[5] = target: T5, kinases of the scanMAX Kinase assay panel (Homo sapiens, UniProt P42680); conditions: kinase TEC; 1 uM in DMSO
T5 construct: purchased DiscoverX Co. (contract measurement) scanMAX Kinase assay panel
T5 sequence (P42680 1-631): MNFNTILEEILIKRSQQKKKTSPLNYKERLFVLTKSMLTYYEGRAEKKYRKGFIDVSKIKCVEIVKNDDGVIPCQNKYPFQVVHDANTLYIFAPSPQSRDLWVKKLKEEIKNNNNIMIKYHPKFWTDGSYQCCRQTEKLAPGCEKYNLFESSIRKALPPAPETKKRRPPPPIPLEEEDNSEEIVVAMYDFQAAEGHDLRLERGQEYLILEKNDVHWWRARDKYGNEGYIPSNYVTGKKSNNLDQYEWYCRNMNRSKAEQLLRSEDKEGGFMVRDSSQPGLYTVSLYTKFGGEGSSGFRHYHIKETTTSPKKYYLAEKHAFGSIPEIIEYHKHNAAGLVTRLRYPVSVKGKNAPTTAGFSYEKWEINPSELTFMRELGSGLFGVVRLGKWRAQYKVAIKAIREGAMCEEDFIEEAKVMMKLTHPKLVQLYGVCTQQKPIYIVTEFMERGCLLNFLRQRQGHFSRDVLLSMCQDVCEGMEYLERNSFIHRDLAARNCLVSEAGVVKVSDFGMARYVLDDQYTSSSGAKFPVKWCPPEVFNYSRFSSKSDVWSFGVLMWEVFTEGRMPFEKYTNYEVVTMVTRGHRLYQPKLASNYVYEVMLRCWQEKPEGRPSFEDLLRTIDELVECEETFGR
Procedure, shortened: as §1

[6] = target: T6, kinases of the scanMAX Kinase assay panel (Homo sapiens, UniProt Q96L34); conditions: MARK4; 1 uM
T6 construct: purchased DiscoverX Co. (contract measurement) scanMAX Kinase assay panel
T6 sequence (Q96L34 1-752): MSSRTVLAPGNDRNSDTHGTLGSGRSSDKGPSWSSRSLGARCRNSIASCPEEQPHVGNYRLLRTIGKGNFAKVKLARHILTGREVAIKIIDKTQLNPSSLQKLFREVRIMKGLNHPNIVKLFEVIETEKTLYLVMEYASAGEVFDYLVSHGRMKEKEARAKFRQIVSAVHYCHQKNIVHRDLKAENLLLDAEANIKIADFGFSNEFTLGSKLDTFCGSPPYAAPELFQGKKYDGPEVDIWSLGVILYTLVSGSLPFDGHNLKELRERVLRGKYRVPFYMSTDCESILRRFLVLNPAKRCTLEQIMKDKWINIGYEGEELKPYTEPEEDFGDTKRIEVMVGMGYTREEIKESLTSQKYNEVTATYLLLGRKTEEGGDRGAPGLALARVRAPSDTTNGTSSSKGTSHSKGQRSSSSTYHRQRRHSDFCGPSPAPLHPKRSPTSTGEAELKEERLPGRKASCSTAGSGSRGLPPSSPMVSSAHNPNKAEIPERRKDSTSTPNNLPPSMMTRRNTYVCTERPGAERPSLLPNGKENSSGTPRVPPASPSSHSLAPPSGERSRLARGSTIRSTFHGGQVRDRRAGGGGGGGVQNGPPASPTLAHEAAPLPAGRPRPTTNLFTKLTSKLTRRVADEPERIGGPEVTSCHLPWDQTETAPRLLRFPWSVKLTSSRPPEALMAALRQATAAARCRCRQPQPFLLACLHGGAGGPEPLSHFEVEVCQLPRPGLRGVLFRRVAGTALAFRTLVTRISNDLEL
Procedure, shortened: as §1

[7] = target: T7, kinases of the scanMAX Kinase assay panel (Homo sapiens, UniProt P00519, F317L); conditions: 1 uM
T7 construct: purchased DiscoverX Co. (contract measurement) scanMAX Kinase assay panel
T7 sequence (P00519 whole entry F317L): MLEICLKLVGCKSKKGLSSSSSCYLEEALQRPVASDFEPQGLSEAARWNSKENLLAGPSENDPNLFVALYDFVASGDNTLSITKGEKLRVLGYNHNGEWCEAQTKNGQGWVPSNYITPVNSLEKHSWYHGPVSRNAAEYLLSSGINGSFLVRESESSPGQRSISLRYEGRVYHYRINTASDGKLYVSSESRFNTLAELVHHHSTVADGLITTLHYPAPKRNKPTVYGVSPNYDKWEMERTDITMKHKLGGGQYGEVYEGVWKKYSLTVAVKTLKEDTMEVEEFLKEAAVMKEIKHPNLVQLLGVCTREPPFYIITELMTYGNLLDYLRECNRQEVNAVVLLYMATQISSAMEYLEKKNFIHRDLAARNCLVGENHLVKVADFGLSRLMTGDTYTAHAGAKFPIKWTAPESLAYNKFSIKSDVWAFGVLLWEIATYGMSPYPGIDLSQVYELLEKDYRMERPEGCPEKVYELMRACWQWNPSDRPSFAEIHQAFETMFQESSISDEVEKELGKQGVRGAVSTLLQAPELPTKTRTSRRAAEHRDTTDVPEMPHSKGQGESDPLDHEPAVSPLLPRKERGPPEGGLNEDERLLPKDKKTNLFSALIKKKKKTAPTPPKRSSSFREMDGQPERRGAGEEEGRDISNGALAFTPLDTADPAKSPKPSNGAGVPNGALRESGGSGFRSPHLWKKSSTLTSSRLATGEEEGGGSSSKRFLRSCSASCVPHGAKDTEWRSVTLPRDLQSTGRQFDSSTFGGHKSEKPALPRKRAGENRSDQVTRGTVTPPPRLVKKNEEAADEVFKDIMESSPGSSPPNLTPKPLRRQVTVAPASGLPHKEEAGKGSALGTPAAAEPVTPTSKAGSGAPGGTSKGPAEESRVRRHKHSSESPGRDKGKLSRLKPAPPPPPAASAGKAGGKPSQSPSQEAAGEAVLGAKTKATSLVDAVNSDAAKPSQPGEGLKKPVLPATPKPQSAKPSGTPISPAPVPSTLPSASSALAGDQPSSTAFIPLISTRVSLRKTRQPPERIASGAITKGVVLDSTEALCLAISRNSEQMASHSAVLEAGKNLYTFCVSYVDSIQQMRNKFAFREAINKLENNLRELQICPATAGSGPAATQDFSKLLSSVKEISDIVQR
Procedure, shortened: as §1

[8] = target: T8, kinases of the scanMAX Kinase assay panel (Homo sapiens, UniProt O75676); conditions: 1 uM in DMSO
T8 construct: purchased DiscoverX Co. (contract measurement) scanMAX Kinase assay panel
T8 sequence (O75676 whole entry): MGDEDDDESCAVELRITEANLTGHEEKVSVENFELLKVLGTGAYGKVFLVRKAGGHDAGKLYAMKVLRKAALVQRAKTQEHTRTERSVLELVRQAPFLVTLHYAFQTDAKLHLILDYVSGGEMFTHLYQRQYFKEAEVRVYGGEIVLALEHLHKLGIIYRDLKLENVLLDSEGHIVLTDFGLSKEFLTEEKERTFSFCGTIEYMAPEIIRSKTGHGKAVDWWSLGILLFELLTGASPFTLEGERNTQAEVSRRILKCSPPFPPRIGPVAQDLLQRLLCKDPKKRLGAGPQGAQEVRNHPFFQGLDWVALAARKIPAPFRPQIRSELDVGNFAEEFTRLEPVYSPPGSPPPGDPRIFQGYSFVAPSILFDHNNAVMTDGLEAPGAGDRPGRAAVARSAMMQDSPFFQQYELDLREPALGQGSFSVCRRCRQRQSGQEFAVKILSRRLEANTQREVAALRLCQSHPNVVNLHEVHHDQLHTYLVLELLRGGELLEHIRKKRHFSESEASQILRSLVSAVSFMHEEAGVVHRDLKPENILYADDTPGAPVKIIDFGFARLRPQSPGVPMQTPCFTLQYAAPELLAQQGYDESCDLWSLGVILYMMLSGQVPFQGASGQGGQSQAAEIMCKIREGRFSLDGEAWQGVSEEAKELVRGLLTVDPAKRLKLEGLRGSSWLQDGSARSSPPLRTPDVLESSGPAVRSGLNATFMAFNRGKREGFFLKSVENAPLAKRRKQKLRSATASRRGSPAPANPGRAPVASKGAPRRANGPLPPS
Procedure, shortened: as §1

[9] = target: T9, kinases of the scanMAX Kinase assay panel (Homo sapiens, UniProt Q13131); conditions: AMPK-alpha1; 1 uM
T9 construct: purchased DiscoverX Co. (contract measurement) scanMAX Kinase assay panel
T9 sequence (Q13131 whole entry): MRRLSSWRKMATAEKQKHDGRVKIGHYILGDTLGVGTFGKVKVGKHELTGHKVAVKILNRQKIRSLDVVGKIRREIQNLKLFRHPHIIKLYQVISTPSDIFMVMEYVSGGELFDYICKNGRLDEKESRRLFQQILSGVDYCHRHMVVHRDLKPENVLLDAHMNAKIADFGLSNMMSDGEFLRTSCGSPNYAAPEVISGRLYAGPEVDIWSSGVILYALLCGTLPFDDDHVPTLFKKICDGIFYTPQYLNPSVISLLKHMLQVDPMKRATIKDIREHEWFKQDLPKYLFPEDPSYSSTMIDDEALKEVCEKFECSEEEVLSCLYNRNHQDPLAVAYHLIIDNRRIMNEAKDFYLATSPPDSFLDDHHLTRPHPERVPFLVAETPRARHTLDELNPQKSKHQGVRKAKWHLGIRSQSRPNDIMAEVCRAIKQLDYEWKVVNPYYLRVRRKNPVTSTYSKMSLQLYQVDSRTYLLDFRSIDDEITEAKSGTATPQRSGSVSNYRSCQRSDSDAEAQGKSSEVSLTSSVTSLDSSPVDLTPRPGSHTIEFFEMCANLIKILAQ
Procedure, shortened: as §1

[10] = target: T10, kinases of the scanMAX Kinase assay panel (Homo sapiens, UniProt O94921); conditions: PFTK1; 1 uM
T10 construct: purchased DiscoverX Co. (contract measurement) scanMAX Kinase assay panel
Procedure, shortened: as §1

[11] = target: T11, kinases of the scanMAX Kinase assay panel (Homo sapiens, UniProt P21802); conditions: FGFR2; 1 uM
T11 construct: purchased DiscoverX Co. (contract measurement) scanMAX Kinase assay panel
T11 sequence (P21802 22-821): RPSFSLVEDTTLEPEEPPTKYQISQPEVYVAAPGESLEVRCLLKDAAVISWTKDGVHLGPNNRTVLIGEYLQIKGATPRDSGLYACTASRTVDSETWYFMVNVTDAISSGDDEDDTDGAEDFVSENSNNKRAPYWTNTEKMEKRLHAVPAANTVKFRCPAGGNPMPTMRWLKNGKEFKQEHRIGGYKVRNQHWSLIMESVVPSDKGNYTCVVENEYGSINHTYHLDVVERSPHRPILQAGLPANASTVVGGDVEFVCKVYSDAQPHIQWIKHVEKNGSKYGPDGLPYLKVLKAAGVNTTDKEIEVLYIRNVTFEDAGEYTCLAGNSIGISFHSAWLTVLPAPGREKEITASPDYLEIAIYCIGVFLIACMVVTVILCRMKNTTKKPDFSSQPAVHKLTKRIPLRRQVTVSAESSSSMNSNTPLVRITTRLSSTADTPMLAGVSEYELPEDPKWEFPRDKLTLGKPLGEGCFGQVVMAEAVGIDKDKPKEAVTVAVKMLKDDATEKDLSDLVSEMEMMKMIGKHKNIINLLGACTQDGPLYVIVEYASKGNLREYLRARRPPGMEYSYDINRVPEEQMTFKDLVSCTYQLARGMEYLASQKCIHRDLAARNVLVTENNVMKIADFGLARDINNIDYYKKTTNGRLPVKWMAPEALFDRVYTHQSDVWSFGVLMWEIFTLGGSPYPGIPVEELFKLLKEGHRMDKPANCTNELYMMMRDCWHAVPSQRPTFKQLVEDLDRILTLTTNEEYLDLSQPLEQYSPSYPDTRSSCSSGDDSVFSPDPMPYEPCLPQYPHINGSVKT
Procedure, shortened: as §1

[12] = kinase RPS6KA4(Kin.Dom.1-N-terminal), read-out: % control, RPS6KA4(Kin.Dom.1-N-terminal)
[13] = kinase RPS6KA4(Kin.Dom.2-C-terminal), read-out: % control, RPS6KA4(Kin.Dom.2-C-terminal)

| SMILES | remaining binding at 1 µM [1] [%] | remaining binding at 1 µM [2] [%] | remaining binding at 1 µM [3] [%] | remaining binding at 1 µM [4] [%] | remaining binding at 1 µM [5] [%] | remaining binding at 1 µM [6] [%] | remaining binding at 1 µM ([7]; ABL1(F317L)-nonphosphorylated) [%] | remaining binding at 1 µM ([7]; ABL1(F317L)-phosphorylated) [%] | remaining binding at 1 µM [8, 12] [%] | remaining binding at 1 µM [8, 13] [%] | remaining binding at 1 µM [9] [%] | remaining binding at 1 µM [10] [%] | remaining binding at 1 µM [11] [%] |
| --- | --- | --- | --- | --- | --- | --- | --- | --- | --- | --- | --- | --- | --- |
| CCNc1nc(Nc2ccc(C(=O)N3CCC(N4CCOCC4)CC3)cc2OC)nc2[nH]cc(C(F)(F)F)c12 [Example 104, (4-((4-(ethylamino)-5-(trifluoromethyl)-7H-pyrrolo[2,3-d]pyrimidine-2-yl)amino)-3-methoxyphenyl)(4-morpholinopiperidine-1-yl)methanone] | 99 | 66 | 86 | 100 | 86 | 100 | 74 | 35 | 100 | 18 | 100 | 96 | 96 |
| CNc1nc(Nc2ccc(C(=O)N3CCOCC3)cc2OC)nc2[nH]cc(C#N)c12 [Example 1, 2-((2-methoxy-4-(morpholine-4-carbonyl)phenyl)amino)-4-(methylamino)-7H-pyrrolo[2,3-d]pyrimidine-5-carbonitrile] | 97 | 69 | 78 | 96 | 100 | 84 | 91 | 48 | 92 | 0.2 | 87 | 97 | 95 |
| CC1(Nc2nc(Nc3cnn([C@H]4CCN(C5COC5)C[C@@H]4F)c3Cl)nc3[nH]cc(C#N)c23)CC1 [Example 52, 2-((5-chloro-1-((3S,4S)-3-fluoro-1-(oxetane-3-yl)piperidine-4-yl)-1H-pyrazole-4-yl)amino)((1-methylcyclopropyl)amino)-7H-pyrrolo[2,3-d]pyrimidine-5-carbonitrile] | 90 | 41 | 3.1 | 19 | 24 | 37 | 16 | 0 | 68 | 2.2 | 4.3 | 100 | 26 |
